Key:
[1] = biological target: T1, full-length Shp2 (Shp2 FL) (Homo sapiens, UniProt Q06124); experiment: in vitro PTP assay (pNPP), full-length Shp2; format: biochemical; details: full-length Shp2 (Shp2 FL)
T1 sequence (Q06124 1-593): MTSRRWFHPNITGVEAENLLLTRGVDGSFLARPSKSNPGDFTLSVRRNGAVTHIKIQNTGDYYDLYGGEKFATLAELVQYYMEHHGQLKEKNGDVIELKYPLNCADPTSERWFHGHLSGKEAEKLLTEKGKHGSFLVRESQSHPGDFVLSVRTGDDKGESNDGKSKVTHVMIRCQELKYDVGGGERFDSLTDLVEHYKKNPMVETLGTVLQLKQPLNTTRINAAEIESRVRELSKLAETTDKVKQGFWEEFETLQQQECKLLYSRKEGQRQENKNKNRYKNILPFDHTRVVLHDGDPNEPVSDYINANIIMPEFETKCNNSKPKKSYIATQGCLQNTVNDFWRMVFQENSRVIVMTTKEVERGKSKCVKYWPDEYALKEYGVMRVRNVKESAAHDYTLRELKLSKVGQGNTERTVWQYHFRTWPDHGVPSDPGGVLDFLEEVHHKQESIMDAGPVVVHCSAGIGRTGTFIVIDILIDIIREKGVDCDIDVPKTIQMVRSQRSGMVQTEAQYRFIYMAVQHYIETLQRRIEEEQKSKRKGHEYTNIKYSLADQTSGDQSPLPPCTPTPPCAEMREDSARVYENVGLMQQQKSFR
Method: (§1) Plasmids for expression of His-tag fusion proteins of human PTP were constructed in PET-28a by PCR subcloning techniques. The constructions contain only the PTP domain except Full-length Shp2. Full-length Shp2 containing Tyr279-to-Ala mutant was generated by PCR-based mutagenesis. All constructs were verified by DNA sequencing. PTP-His fusion proteins were expressed in Escherichia coli BL21 and lysed in the buffer (50 mM NaH2PO4, 300 mM NaCl, 250 mM imidazole, 1 mM dithiothreitol plus 5% glycerol), purified with Ni-NTA Magnetic Agarose Beads (Qiagen). The His-tag recombinant purification protocol was carried out according to the purification under native conditions of the QIAexpress System.
(§2) The assay was set in wells of 96-well plate with a final volume of 100 μl of reaction mixture containing 10 mM of NaAc-HAc, 1 mM of ethylene diamine tetraacetic acid, 1 mM of DL-dithiothreitol and 2% of dimethyl sulfoxide, pH 5.5. Activity of the enzyme was assayed by incubating recombinant PTP protein or mutant PTP with various concentrations of Fumos in the mixture at 37 °C for 30 min. Absorbance at 405 nm was detected immediately after addition of varied concentrations of substrate, p-nitrophenyl phosphate (pNPP) to each corresponding well.

Shp2 PTP domain = biological target: T2, Shp2 PTP domain (Homo sapiens, UniProt Q06124); experiment: in vitro PTP assay (pNPP), Shp2 PTP domain; format: biochemical; details: Shp2 PTP domain; pNPP; mean ± S.E.M., triplicate; read-out: IC50
T2 sequence (Q06124 247-517 limits assumed): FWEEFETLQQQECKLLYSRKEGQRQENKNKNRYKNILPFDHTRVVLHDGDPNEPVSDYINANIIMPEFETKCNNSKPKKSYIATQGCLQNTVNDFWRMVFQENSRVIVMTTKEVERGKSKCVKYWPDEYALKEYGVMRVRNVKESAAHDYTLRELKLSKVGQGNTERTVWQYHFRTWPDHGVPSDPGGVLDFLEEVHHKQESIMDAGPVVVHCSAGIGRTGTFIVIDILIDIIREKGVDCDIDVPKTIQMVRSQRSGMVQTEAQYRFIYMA
Method: as §1, §2

[2] = test system: ERK1/2 activation in HEK293T cells expressing H-RasV12; experiment: RasV12-induced ERK1/2 activation in transfected HEK293T; format: cell-based, human; details: Fumos 20 μM or U0126 10 μM, 24 h
Method: DMSO treatment as control. […] (c) Fumos inhibits EGF-induced Ras activation.
HEK293T, MDA-MB-231and HeLa cell lines were obtained from CRC/PUMC. Cell lines were maintained in Dulbecco’s modified Eagle’s medium supplemented with 10% fetal bovine serum. Transfections were performed in 6-well plates according to manufacturer (Invitrogen Lipofectamine LTX).Briefly, for transient transfection of HEK293T cells, subconfluent cells in 6-well plates were incubated with 2 ml of Dulbecco’s modified Eagle’s medium containing 2.5 μg of total DNA and 7.5 μl of each Lipofectamine and Plus reagent (Invitrogen) and then serum-starved in DMEM/0.1% bovine serum albumin for 18 h. After Fumos treatment for 24 h, cells were stimulated for 5 min with 20 ng/ml EGF.
After centrifugation, the supernatant was collected.

IC50 [1] [µM]	IC50 (Shp2 PTP domain) [µM]	SMILES	RasV12-induced ERK1/2 activation [2]
630	620	[Na+].[Na+].[Na+].[O]=[V]([O-])([O-])[O-] [sodium orthovanadate, reference compound]	–
–	–	N#CC(=C(/N)Sc1ccccc1N)/C(C#N)=C(/N)Sc1ccccc1N [U0126, reference compound]	blocked ERK1/2 phosphorylation
